Starred links: 1 amine or outer side, 2 acyl side, 3 side chain; linkers in the order of their positions; H or OH if unused. Positions of bridges follow the written chain, without caps; N, C: chain ends. Non-standard residues stand in square brackets, D forms with d. Residues, ends and D or L forms follow the SMILES beside them. *: point of attachment. pTerphenylCO(4''-OnC5H11) = CCCCCOc1ccc(-c2ccc(-c3ccc(C(=O)*)cc3)cc2)cc1; Orn(4R-OH,5R-OH) = O=C([C@H](C[C@@H](O)[C@@H](O)N[*:3])N[*:1])[*:2]; hTyr(3S-OH,4S-OH) = N[C@H](C(=O)O)[C@H](O)[C@@H](O)c1ccc(O)cc1; Pro(3S-OH,4S-Me) = C[C@H]1CN[C@H](C(=O)O)[C@H]1O; Hyp = O=C(O)[C@@H]1C[C@@H](O)CN1
What was measured:
[1] = test system: Candida albicans spondylodiscitis; format: in vivo, human; conditions: Example A: person, Candida albicans spondylodiscitis L4/L5; oral 750 mg BID 2 days then 750 mg QD (citrate salt tablets); 277 days of treatment
From the text: (§1) This example presents treatment courses of two patients with Candida spondylodiscitis who were enrolled in an “Open-Label Study to Evaluate Efficacy and Safety of SCY-078 in Patients With Refractory or Intolerant Fungal Diseases (FURI)” (clinicaltrials.gov identifier NCT03059992).
(§2) Objective: The objective of the study is to evaluate the efficacy of orally administered SCY-078 for the treatment of fungal infections that are refractory to or intolerant of approved antifungal agents.
(§3) Study design: This is a multicenter, open-label, non-comparator, single-arm study to evaluate the efficacy, safety, and pharmacokinetics (PK) of SCY-078 (administered as the citrate salt) in male and female subjects≥18 years of age with documented invasive and/or severe candidiasis that has been refractory to or intolerant of, or has shown toxicities associated with standard of care (SoC) antifungal treatment. Subjects must have a documented eligible acute or chronic invasive candidiasis (including candidemia) and meet all study criteria to be considered for enrollment. […]
(§4) Efficacy: Efficacy will be assessed primarily in terms of global success (both clinical success and mycological success). Complete global response, partial global response, clinical success, and mycological success will also be assessed. […]

[2] = test system: Candida tropicalis spondylodiscitis; format: in vivo, human; conditions: Example B: person, Candida tropicalis spondylodiscitis L5/S1; oral 750 mg BID 2 days then 750 mg QD (citrate salt tablets); 88 days of treatment
From the text: as §1, §2, §3, §4

[3] = test system: Candida and non-Candida isolates causing fungaemia; conditions: 178 Candida and non-Candida isolates causing fungaemia; EUCAST E Def 7.3 and CLSI M27-A3; cited from earlier work
[4] = set-up: species or system male pigmented Long-Evans rats; conditions: rat, in vivo
Protocol: As a first step of the feasibility evaluation, the tissue distribution of SCY-078 was evaluated in an animal model. […] WH rats were used for mass balance and pharmacokinetic (PK) determinations after i.v. and oral doses, and both WH and LE rats were used for Quantitative whole-body autoradiography (QWBA) determinations. Dose levels were selected to reflect the clinically relevant 11.2-μg·h/ml target exposure for Candida spp. infections. The concentration, homogeneity, radio purity, and stability of dosing formulations were confirmed to be acceptable before dosing. For QWBA whole-body sections (˜40 μm thick via Leica CM3600 cryomicrotome; Nussloch, Germany), where all major tissues, organs, and biological fluids were represented, sections were exposed for phosphor imaging (Fuji Biomedical, Stamford, Conn.) together with calibration standards. […] Quantification was performed by image densitometry with MCID image analysis software (v. 7.0; Interfocus Imaging Ltd., Linton, Cambridge, UK), and a standard curve was constructed from the integrated response (molecular dynamics counts [MDC]/mm2) and the nominal concentrations of the 14C-calibration standards. The concentrations of radioactivity were expressed as [14C]SCY-078 μg equiv/g tissue. The lower limit of quantitation was 0.024 and 0.049 μg equiv/g of tissue for i.v. and oral doses of SCY-078, respectively. […]

[5] = test system: sessile (biofilm) forms of Candida and non-Candida isolates; conditions: XTT reduction assay, confirmed by scanning electron microscopy; cited from earlier work
[6] = cited from earlier work
[7] = mice; cited from earlier work

## CC(C)[C@@H](C)[C@@]1(C)CC[C@]2(C)[C@H]3CC[C@@H]4[C@@]5(COC[C@@]4(C)[C@@H](OC[C@](C)(N)C(C)(C)C)[C@H](n4ncnc4-c4ccncc4)C5)C3=CC[C@@]2(C)[C@@H]1C(=O)O [SCY-078, (1S,4aR,6aS,7R,8R,10aR,10bR,12aR,14R,15R)-15-[[(2R)-2-amino-2,3,3-trimethylbutyl]oxy]-8-[(1R)-1,2-dimethylpropyl]-14-[5-(4-pyridinyl)-1H-1,2,4-triazol-1-yl]-1,6,6a,7,8,9,10,10a,10b,11,12,12a-dodecahydro-1,6a,8,10a-tetramethyl-4H-1,4a-propano-2H-phenanthro[1,2-c]pyran-7-carboxylic acid]
[1]
  patient's response to date: improved
[2]
  patient's response to date: resolved
[3]
  in vitro activity against planktonic form: potent in vitro activity
[4]
  exposure observed in bone compared with plasma: exceeded the exposure measured in plasma
  exposure observed in bone marrow compared with plasma: exceeded the exposure measured in plasma
[5]
  antibiofilm activity: activity against the biofilms

## CCCCCOc1ccc(-c2ccc(-c3ccc(C(=O)N[C@H]4C[C@@H](O)[C@@H](O)NC(=O)[C@@H]5[C@@H](O)[C@@H](C)CN5C(=O)[C@H]([C@@H](C)O)NC(=O)[C@H]([C@H](O)[C@@H](O)c5ccc(O)cc5)NC(=O)[C@@H]5C[C@@H](O)CN5C(=O)[C@H]([C@@H](C)O)NC4=O)cc3)cc2)cc1 [anidulafungin] ({pTerphenylCO(4''-OnC5H11)}-[Orn(4R-OH,5R-OH)]T[Hyp][hTyr(3S-OH,4S-OH)]T[Pro(3S-OH,4S-Me)]; lactam 1-C)
[6]; neonatal rats after a single dose
  bone/plasma concentration ratio: 0.21
[6]; rats
  skeletal muscle concentrations compared with plasma: comparable to those in plasma

## CC[C@H](C)C[C@H](C)CCCCCCCCC(=O)N[C@H]1C[C@@H](O)[C@@H](NCCN)NC(=O)[C@@H]2[C@@H](O)CCN2C(=O)[C@H]([C@H](O)CCN)NC(=O)[C@H]([C@H](O)[C@@H](O)c2ccc(O)cc2)NC(=O)[C@@H]2C[C@@H](O)CN2C(=O)[C@H]([C@@H](C)O)NC1=O [caspofungin]
[7]
  skeletal muscle concentrations as % of those in plasma: less than 50%

From US20220117948A1, “TRITERPENOID ANTIFUNGALS FOR THE TREATMENT OF FUNGAL OSTEO-ARTICULAR INFECTIONS” (Scynexis, Inc., priority 2019, published 2022)
